# Data from the NIST ThermoML archive (doi:10.1016/j.fluid.2017.12.010).
# ± gives the expanded uncertainty stated by the source.
# Assay: xn = mol fraction of the nth substance listed
# Details: Liquid, Vibrating tube method
compound,measurement,setting,value
CCCCCCCCCCCC [dodecane] + CCCCCCCCCC,mass density,"342.94 K, 80000 kPa, x2 = 0.2297",765 ± 3 kg/m3
same,mass density,"342.94 K, 80000 kPa, x2 = 0.6433",758 ± 3 kg/m3
same,mass density,"342.94 K, 100000 kPa, x2 = 0.2297",774 ± 3 kg/m3
same,mass density,"342.94 K, 100000 kPa, x2 = 0.6433",768 ± 3 kg/m3
same,mass density,"342.95 K, 100 kPa, x2 = 0.7841",698 ± 3 kg/m3
same,mass density,"342.95 K, 1000 kPa, x2 = 0.7841",699 ± 3 kg/m3
same,mass density,"342.96 K, 5000 kPa, x2 = 0.7841",703 ± 3 kg/m3
same,mass density,"342.97 K, 10000 kPa, x2 = 0.7841",708 ± 3 kg/m3
same,mass density,"342.97 K, 20000 kPa, x2 = 0.7841",717 ± 3 kg/m3
same,mass density,"342.98 K, 30000 kPa, x2 = 0.7841",724 ± 3 kg/m3
same,mass density,"342.98 K, 40000 kPa, x2 = 0.7841",732 ± 3 kg/m3
same,mass density,"342.99 K, 60000 kPa, x2 = 0.7841",744 ± 3 kg/m3
same,mass density,"343 K, 80000 kPa, x2 = 0.7841",756 ± 3 kg/m3
same,mass density,"343 K, 99990 kPa, x2 = 0.7841",766 ± 3 kg/m3
same,mass density,"352.58 K, 100 kPa, x2 = 0",707 ± 3 kg/m3
same,mass density,"352.58 K, 1000 kPa, x2 = 0",708 ± 3 kg/m3
same,mass density,"352.58 K, 5000 kPa, x2 = 0",712 ± 3 kg/m3
same,mass density,"352.58 K, 10000 kPa, x2 = 0",716 ± 3 kg/m3
same,mass density,"352.58 K, 20000 kPa, x2 = 0",725 ± 3 kg/m3
same,mass density,"352.58 K, 30000 kPa, x2 = 0",733 ± 3 kg/m3
same,mass density,"352.58 K, 40000 kPa, x2 = 0",740 ± 3 kg/m3
same,mass density,"352.58 K, 50000 kPa, x2 = 0",747 ± 3 kg/m3
same,mass density,"352.58 K, 60000 kPa, x2 = 0",753 ± 3 kg/m3
same,mass density,"352.58 K, 70000 kPa, x2 = 0",759 ± 3 kg/m3
same,mass density,"352.58 K, 80000 kPa, x2 = 0",764 ± 3 kg/m3
same,mass density,"352.58 K, 90000 kPa, x2 = 0",769 ± 3 kg/m3
same,mass density,"352.58 K, 100000 kPa, x2 = 0",774 ± 3 kg/m3
same,mass density,"352.73 K, 100 kPa, x2 = 0.2297",702 ± 3 kg/m3
same,mass density,"352.74 K, 1000 kPa, x2 = 0.2297",703 ± 3 kg/m3
same,mass density,"352.74 K, 5000 kPa, x2 = 0.2297",707 ± 3 kg/m3
same,mass density,"352.75 K, 10000 kPa, x2 = 0.2297",712 ± 3 kg/m3
same,mass density,"352.75 K, 20000 kPa, x2 = 0.2297",721 ± 3 kg/m3
same,mass density,"352.75 K, 30000 kPa, x2 = 0.2297",729 ± 3 kg/m3
same,mass density,"352.75 K, 40000 kPa, x2 = 0.2297",736 ± 3 kg/m3
same,mass density,"352.76 K, 60000 kPa, x2 = 0.2297",749 ± 3 kg/m3
same,mass density,"352.76 K, 80000 kPa, x2 = 0.2297",760 ± 3 kg/m3
same,mass density,"352.76 K, 100000 kPa, x2 = 0.2297",770 ± 3 kg/m3
same,mass density,"352.78 K, 100 kPa, x2 = 0.6433",694 ± 3 kg/m3
same,mass density,"352.78 K, 1000 kPa, x2 = 0.6433",695 ± 3 kg/m3
same,mass density,"352.78 K, 5000 kPa, x2 = 0.6433",699 ± 3 kg/m3
same,mass density,"352.78 K, 10000 kPa, x2 = 0.6433",704 ± 3 kg/m3
same,mass density,"352.78 K, 20000 kPa, x2 = 0.6433",713 ± 3 kg/m3
same,mass density,"352.78 K, 30000 kPa, x2 = 0.6433",721 ± 3 kg/m3
same,mass density,"352.78 K, 40000 kPa, x2 = 0.6433",729 ± 3 kg/m3
same,mass density,"352.79 K, 5000 kPa, x2 = 0.4436",703 ± 3 kg/m3
same,mass density,"352.79 K, 60000 kPa, x2 = 0.6433",742 ± 3 kg/m3
same,mass density,"352.79 K, 79990 kPa, x2 = 0.6433",754 ± 3 kg/m3
same,mass density,"352.79 K, 100000 kPa, x2 = 0.6433",764 ± 3 kg/m3
same,mass density,"352.8 K, 1000 kPa, x2 = 0.4436",699 ± 3 kg/m3
same,mass density,"352.8 K, 10000 kPa, x2 = 0.4436",708 ± 3 kg/m3
same,mass density,"352.8 K, 20000 kPa, x2 = 0.4436",717 ± 3 kg/m3
same,mass density,"352.81 K, 100 kPa, x2 = 0.4436",698 ± 3 kg/m3
same,mass density,"352.81 K, 1000 kPa, x2 = 0.7841",692 ± 3 kg/m3
same,mass density,"352.81 K, 30000 kPa, x2 = 0.4436",725 ± 3 kg/m3
same,mass density,"352.81 K, 40000 kPa, x2 = 0.4436",733 ± 3 kg/m3
same,mass density,"352.81 K, 60000 kPa, x2 = 0.4436",746 ± 3 kg/m3
same,mass density,"352.81 K, 99990 kPa, x2 = 0.4436",767 ± 3 kg/m3
same,mass density,"352.82 K, 100 kPa, x2 = 0.7841",691 ± 3 kg/m3
same,mass density,"352.82 K, 80000 kPa, x2 = 0.4436",757 ± 3 kg/m3
same,mass density,"352.83 K, 5000 kPa, x2 = 0.7841",696 ± 3 kg/m3
same,mass density,"352.84 K, 10000 kPa, x2 = 0.7841",701 ± 3 kg/m3
same,mass density,"352.84 K, 20000 kPa, x2 = 0.7841",711 ± 3 kg/m3
same,mass density,"352.85 K, 30000 kPa, x2 = 0.7841",719 ± 3 kg/m3
same,mass density,"352.85 K, 40000 kPa, x2 = 0.7841",726 ± 3 kg/m3
same,mass density,"352.85 K, 60000 kPa, x2 = 0.7841",740 ± 3 kg/m3
same,mass density,"352.85 K, 80000 kPa, x2 = 0.7841",751 ± 3 kg/m3
same,mass density,"352.85 K, 100000 kPa, x2 = 0.7841",762 ± 3 kg/m3
same,mass density,"362.48 K, 5000 kPa, x2 = 0",704 ± 3 kg/m3
same,mass density,"362.48 K, 10000 kPa, x2 = 0",709 ± 3 kg/m3
same,mass density,"362.48 K, 20000 kPa, x2 = 0",718 ± 3 kg/m3
same,mass density,"362.48 K, 30000 kPa, x2 = 0",726 ± 3 kg/m3
same,mass density,"362.48 K, 50000 kPa, x2 = 0",741 ± 3 kg/m3
same,mass density,"362.48 K, 80000 kPa, x2 = 0",759 ± 3 kg/m3
same,mass density,"362.48 K, 90000 kPa, x2 = 0",764 ± 3 kg/m3
same,mass density,"362.49 K, 100 kPa, x2 = 0",699 ± 3 kg/m3
same,mass density,"362.49 K, 1000 kPa, x2 = 0",700 ± 3 kg/m3
same,mass density,"362.49 K, 40000 kPa, x2 = 0",734 ± 3 kg/m3
same,mass density,"362.49 K, 60000 kPa, x2 = 0",747 ± 3 kg/m3
same,mass density,"362.49 K, 70000 kPa, x2 = 0",753 ± 3 kg/m3
same,mass density,"362.49 K, 100000 kPa, x2 = 0",769 ± 3 kg/m3
same,mass density,"362.57 K, 100 kPa, x2 = 0.2297",695 ± 3 kg/m3
same,mass density,"362.57 K, 1000 kPa, x2 = 0.2297",696 ± 3 kg/m3
same,mass density,"362.58 K, 5000 kPa, x2 = 0.2297",700 ± 3 kg/m3
same,mass density,"362.58 K, 10000 kPa, x2 = 0.2297",705 ± 3 kg/m3
same,mass density,"362.58 K, 20000 kPa, x2 = 0.2297",714 ± 3 kg/m3
same,mass density,"362.58 K, 30000 kPa, x2 = 0.2297",722 ± 3 kg/m3
same,mass density,"362.59 K, 40000 kPa, x2 = 0.2297",730 ± 3 kg/m3
same,mass density,"362.59 K, 60000 kPa, x2 = 0.2297",743 ± 3 kg/m3
same,mass density,"362.59 K, 80000 kPa, x2 = 0.2297",755 ± 3 kg/m3
same,mass density,"362.59 K, 100000 kPa, x2 = 0.2297",765 ± 3 kg/m3
same,mass density,"362.61 K, 100 kPa, x2 = 0.4436",690 ± 3 kg/m3
same,mass density,"362.61 K, 1000 kPa, x2 = 0.4436",691 ± 3 kg/m3
same,mass density,"362.62 K, 100 kPa, x2 = 0.6433",686 ± 3 kg/m3
same,mass density,"362.62 K, 1000 kPa, x2 = 0.6433",687 ± 3 kg/m3
same,mass density,"362.62 K, 5000 kPa, x2 = 0.4436",696 ± 3 kg/m3
same,mass density,"362.62 K, 5000 kPa, x2 = 0.6433",691 ± 3 kg/m3
same,mass density,"362.62 K, 10000 kPa, x2 = 0.4436",701 ± 3 kg/m3
same,mass density,"362.62 K, 10000 kPa, x2 = 0.6433",697 ± 3 kg/m3
same,mass density,"362.62 K, 20000 kPa, x2 = 0.4436",710 ± 3 kg/m3
same,mass density,"362.62 K, 30000 kPa, x2 = 0.4436",719 ± 3 kg/m3
same,mass density,"362.62 K, 40000 kPa, x2 = 0.4436",726 ± 3 kg/m3
same,mass density,"362.62 K, 60000 kPa, x2 = 0.4436",740 ± 3 kg/m3
same,mass density,"362.62 K, 80000 kPa, x2 = 0.4436",752 ± 3 kg/m3
same,mass density,"362.63 K, 20000 kPa, x2 = 0.6433",706 ± 3 kg/m3
same,mass density,"362.63 K, 30000 kPa, x2 = 0.6433",715 ± 3 kg/m3
same,mass density,"362.63 K, 40000 kPa, x2 = 0.6433",722 ± 3 kg/m3
same,mass density,"362.63 K, 60000 kPa, x2 = 0.6433",736 ± 3 kg/m3
same,mass density,"362.63 K, 80000 kPa, x2 = 0.6433",748 ± 3 kg/m3
same,mass density,"362.63 K, 99990 kPa, x2 = 0.6433",758 ± 3 kg/m3
same,mass density,"362.63 K, 100000 kPa, x2 = 0.4436",762 ± 3 kg/m3
same,mass density,"362.64 K, 100 kPa, x2 = 0.7841",682 ± 3 kg/m3
same,mass density,"362.64 K, 1000 kPa, x2 = 0.7841",683 ± 3 kg/m3
same,mass density,"362.65 K, 5000 kPa, x2 = 0.7841",688 ± 3 kg/m3
same,mass density,"362.65 K, 10000 kPa, x2 = 0.7841",693 ± 3 kg/m3
same,mass density,"362.66 K, 20000 kPa, x2 = 0.7841",703 ± 3 kg/m3
same,mass density,"362.66 K, 30000 kPa, x2 = 0.7841",712 ± 3 kg/m3
same,mass density,"362.66 K, 40000 kPa, x2 = 0.7841",719 ± 3 kg/m3
same,mass density,"362.66 K, 60000 kPa, x2 = 0.7841",733 ± 3 kg/m3
same,mass density,"362.66 K, 80000 kPa, x2 = 0.7841",745 ± 3 kg/m3
same,mass density,"362.66 K, 100010 kPa, x2 = 0.7841",756 ± 3 kg/m3
